Each structure is given as a SMILES string. ≈ marks a conversion by molar mass, not a printed value. Like-named read-outs stand apart in the source and are kept apart here.

Consider one compound from US4552879A, “Benzoheterocyclic compounds and pharmaceutical composition thereof” (Otsuka Pharmaceutical Co., Ltd., priority 1980, dated 1985).

Format in all cases: cell-based
Experiment [1] deals with Bacillus cereus ATCC 11778. Nature of the experiment: Minimum inhibitory concentration, serial dilution method on agar plate.
The test system of the next experiment is Klebsiella pneumoniae. Described as above. As to conditions: read-out: Minimum Inhibitory Concentration.
Experiment [2] relates to Micrococcus flavus ATCC 10240a. The description is as above. The following applies: ATCC10240A.
Experiment [3] relates to Bacillus circuluns ATCC 8241. Described as above.
For experiment [4], the system named is Micrococcus luteus ATCC 4698. Described as above.
For a further experiment, the system named is Bacillus anthracis. Nature of the experiment: microbe, parasite or virus in culture.
In a further experiment the test system is Proteus rettgeri NIH 96. Nature of the experiment: Minimum inhibitory concentration, serial dilution method on agar plate. As to conditions: Providencia rettgeri.
Experiment [5] has as its system Staphylococcus aureus E-46. The description is as above.
Experiment [6] relates to Bacteroides thetaiotaomicron WAL 2926. The experiment is described as above.

As to `CC1CCc2c(N3CCC(O)CC3)c(F)cc3c(=O)c(C(=O)O)cn1c23` (stereo not drawn) [Compound 1, 9-Fluoro-8-(4-hydroxy-1-piperidyl)-5-methyl-6,7-dihydro-1-oxo-1H,5H-benzo[ij]quinolizine-2-carboxylic acid], the “Minimum Inhibitory Concentration” value in [1] (1×10^6 cells/ml) turned out to be 0.10 µg/mL; in experiment [3] (1×10^6 cells/ml) it was 0.024 µg/mL; in the experiment with Bacillus anthracis (1×10^6 cells/ml) it was 0.05 µg/mL; in experiment [5] (1×10^6 cells/ml), 0.05 µg/mL. Besides, the MIC is 0.1 µg/mL (≈ 0.277 µM) in [1] (Bacillus cereus, ATCC11778, 1×10^8 cells/ml); 0.39 µg/mL (≈ 1.08 µM) in the experiment on Klebsiella pneumoniae (1×10^6 cells/ml); 0.39 µg/mL (≈ 1.08 µM) with Klebsiella pneumoniae (1×10^8 cells/ml); 0.2 µg/mL (≈ 0.555 µM) in experiment [2] (1×10^6 cells/ml); 0.39 µg/mL (≈ 1.08 µM) in experiment [2] (1×10^8 cells/ml); 0.024 µg/mL (≈ 0.0666 µM) in experiment [3] (Bacillus, ATCC8241, 1×10^8 cells/ml). For the same compound, the MIC worked out at 0.1 µg/mL (≈ 0.277 µM) in experiment [4] (ATCC4698, 1×10^6 cells/ml); 0.2 µg/mL (≈ 0.555 µM) in experiment [4] (ATCC4698, 1×10^8 cells/ml); 0.05 µg/mL (≈ 0.139 µM) in the experiment on Bacillus anthracis (Bacillus anthracis, read-out: Minimum Inhibitory Concentration); 0.1 µg/mL (≈ 0.277 µM) with Proteus rettgeri NIH 96 (NIH96, read-out: Minimum Inhibitory Concentration, 1×10^6 cells/ml); 0.2 µg/mL (≈ 0.555 µM) in the experiment with Proteus rettgeri NIH 96 (NIH96, read-out: Minimum Inhibitory Concentration, 1×10^8 cells/ml); 0.05 µg/mL (≈ 0.139 µM) in experiment [5] (Staphylococcus aureus, E46, 1×10^8 cells/ml). The MIC in [6] (WAL2926, 1×10^6 cells/ml) amounted to 1.56 µg/mL (≈ 4.33 µM); in experiment [6] (WAL2926, 1×10^8 cells/ml), 6.25 µg/mL (≈ 17.3 µM).
